Assay [1] has as its system P. aeruginosa PA14 persisters. Kind of assay: Persister killing assay, isolated persister fraction of P. aeruginosa PA14. In kind it is cell-based. On the procedure:
(§1) Persister killing—Planktonic persister cells were isolated from a stationary phase culture as described e.g. in Chen et al., 2011(Chen X, Zhang M, Zhou C, Kallenbach N R, Ren D. 2011. Control of bacterial persister cells by Trp/Arg-containing antimicrobial peptides. Appl Environ Microbiol 77:4878-4885.). Briefly, an overnight culture of P. aeruginosa PA14 and PA1255 (a cystic fibrosis isolate) was inoculated each in 50 ml 1:20 Trypticase Soy Broth (TSB). After 48 h of growth at 37° C., the culture was treated with ofloxacin at a final concentration of 10 μg/ml (5× MIC) for 5 hours at 37° C., while shaking at 200 rpm. The persister cells surviving this antibiotic treatment were isolated by centrifugation (5250 g, 15 min, 4° C.) and the cell pellet was washed twice with 20 mM HEPES buffer. Prior to treatment, cells were resuspended in the same volume of 20 mM HEPES buffer. A persister killing assay was performed as described e.g. by De Groote et al., 2009 (De Groote V N, Verstraeten N, Fauvart M, Kint C I, Verbeeck A M, Beullens S, Cornelis P, Michiels J. 2009. Novel persistence genes in Pseudomonas aeruginosa identified by high-throughput screening. FEMS Microbiol Lett 297:73-79). Briefly, a volume of 100 μl of the isolated persister fraction was mixed with polypeptides comprising peptidoglycan hydrolase or ciprofloxacin (final concentrations of 10× or 30× MIC against the respective strains), in the absence or presence of 0.5 mM EDTA-Na2 (final concentration) up to a final volume of 200 μl. Control treatments with 20 mM HEPES buffer, 0.5 mM EDTA or ofloxacin (30×and 10× MIC) were performed in parallel. The mixtures were shaken (200 rpm) for lh at 37° C. Treated persisters where washed twice with 20 mM HEPES buffer and appropriate dilutions were plated on TSB agar plates and incubated at 37° C. The number of persisters was determined after 72 h incubation to allow complete resuscitation of all surviving persisters. Each experiment was independently repeated at least 3 times.
(§2) Planktonic persister cells were isolated from a stationary-phase culture as described previously (Liebens V, Defraine V, Van der Leyden A, De Groote V N, Fierro C, Beullens S, Verstraeten N, Kint C, Jans A, Frangipani E, Visa P, Marchal K, Versées W, Fauvart M, Michiels J. 2014. A putative de-N-acetylase of the PIG-L superfamily affects fluoroquinolone tolerance in Pseudomonas aeruginosa. Pathogen. Dis. 71:39-54.) with minor modifications. An overnight culture of P. aeruginosa PA14, PAl255 (a cystic fibrosis isolate), Escherichia coil UTI-89 (isolate from chronic urinary tract infection) and Acinetobacter baumannii RUH134 (reference strain for global clone 2) was diluted 100×in 50 ml 1:20 Trypticase soy broth (TSB). After overnight growth at 37° C., the cultures were treated with either 10 μg/ml ofloxacin (P. aeruginosa strains), 200 μg/ml tobramycin (A. baumannii) or 200 μg/ml amikacin (E. coli) for 5 h at 37° C., while shaking at 200 rpm. The antibiotic concentrations were chosen to allow only persister cells to survive, based on previous time-kill curves. The persister fractions were isolated by centrifugation (5,250× g for 15 min at 4° C.), and the cell pellet was washed twice with 20 mM HEPES (pH 7.4). Prior to treatment, the cells were resuspended in a ten-fold reduced volume of 20 mM HEPES (pH 7.4) to concentrate the persisters.
A persister killing assay was performed as described previously (Liebens et al., 2014), with minor modifications. […]

The test system of assay [2] is P. aeruginosa PAl255 persisters. Kind of assay: Persister killing assay, isolated persister fraction of P. aeruginosa PAl255 (cystic fibrosis isolate). The class given is cell-based. On the procedure:
as §1, with “Briefly, a volume of 100 μl of the isolated persister fraction was mixed with polypeptides comprising peptidoglycan hydrolase or ciprofloxacin (final concentrations of 10× or 30× MIC against the respective strains), in the absence or presence of 0.5 mM EDTA-Na2 (final concentration) up to a final volume of 200 μl. Control treatments with 20 mM HEPES buffer, 0.5 mM EDTA or ofloxacin (30×and 10× MIC) were performed in parallel. The mixtures were shaken (200 rpm) for lh at 37° C. Treated persisters where washed twice with 20 mM HEPES buffer and appropriate dilutions were plated on TSB agar plates and incubated at 37° C.” left out, “Each experiment was independently repeated at least 3 times.” left out

Assay [3] has as its system E. coli UTI-89 persisters. In words: Persister killing assay, isolated persister fraction of E. coli UTI-89 (chronic urinary tract infection isolate). In kind it is cell-based, Escherichia coli. The following applies: 10× MIC.
Excerpt: as §2
A persister killing assay was performed as described previously (Liebens et al., 2014), with minor modifications. A volume of 100 μl of the isolated persister fraction was mixed with either the polypeptide according to SEQ ID NO: 124, 125, 126 or ciprofloxacin (final concentrations of 10× or 30× MIC against the respective strains), in the absence or presence of 0.5 mM EDTA-Na2 (final concentration) up to a final volume of 200 μl. Control treatments with 20 mM HEPES (pH 7.4), 0.5 mM EDTA, or ofloxacin/tobramycin/amikacin (30× and 10× MIC) were performed in parallel. […] The number of persisters was determined after 72 h of incubation to allow for complete resuscitation of all surviving persisters.

The mark [4] stands for this setting: 10× and 30× MIC, with and without 0.5 mM EDTA.

As for `O=C([O-])CN(CCN(CC(=O)[O-])CC(=O)O)CC(=O)O.[Na+].[Na+]` [EDTA, reference compound], the “bactericidal activity against isolated persisters” value in assay [1] (0.5 mM EDTA alone) and in assay [2] (0.5 mM EDTA alone) was “did not affect the persisters” in each case.

On to `O=C(O)c1cn(C2CC2)c2cc(N3CCNCC3)c(F)cc2c1=O` [ciprofloxacin, reference compound], for which the “bactericidal activity against isolated persisters” value in assay [1] (setting [4]) and in assay [2] (setting [4]) was “did not affect the persisters” each time. Also, in assay [3] (with and without 0.5 mM EDTA), the “killing of persisters” value is reported as “did not completely kill persisters”.

B1: SEQ ID NO: 124: polypeptide comprising a fusion of Sarcotoxin IA (SEQ ID NO: 48) and KZ144 (SEQ ID NO: 11), active against vegetative cells of E. coli (protein)
chain: MKFFRKLKKSVKKRAKEFFKKPRVIGVSIPFGSKVLRKGDRGDEVCQLQTLLNLCGYDVGKPDGIFGNNTFNQVVKFQKDNCLDSDGIVGKNTWAELFSKYSPPIPYKTIPMPTANKSRAAATPVMNAVENATGVRSQLLLTFASIESAFDYEIKAKTSSATGWFQFLTGTWKTMIENYGMKYGVLTDPTGALRKDPRISALMGAELIKENMNILRPVLKREPTDTDLYLAHFFGPGAARRFLTTGQNELAATHFPKEAQANPSIFYNKDGSPKTIQEVYNLMDGKVAAHRKLEHHHHHH
modifications: SarcotoxinIA-KZ144his
As for B1, in assay [1] (30× MIC, with 0.5 mM EDTA), the “effect on persisters” value is on record as “complete eradication” and the “reduction of the number of persisters” value is “approximately 5 log units”. Moreover, the “reduction of the number of persisters in comparison to the 0.5 mM EDTA control” value in assay [1] (30× MIC, without EDTA) is recorded as “approximately 2.3 log units”. In addition, the “killing of persisters” value in assay [3] (with 0.5 mM EDTA) is on record as “completely eradicated”. In assay [3] (without 0.5 mM EDTA), the “killing of persisters” value was “did not completely kill persisters”.

The values above are taken from patent US20170106058A1, “PHARMACEUTICAL COMPOSITION AGAINST CHRONIC BACTERIAL INFECTIONS” (Lysando AG, priority 2014, published 2017).
